Data published in PMC6522510 (Nature Communications, 2019).

What was measured:
Parameters in all cases: species or system AML cell lines (8); Primary HTS, single concentration about 10 uM, Cell Titer Glo viability; log10 luminescence, per cent inhibition relative to cycloheximide control
Settings in all cases: 72 h, relative to cycloheximide control, log10 luminescence; inhibitor
[1] = test system: ML-2
[2] = test system: CMS
[3] = test system: CMK
[4] = test system: U937
[5] = test system: MOLM-13
[6] = test system: MV4-11
[7] = test system: M07e
[8] = test system: CHRF288-11

Row | Compound | ML-2 %inh [1] [%] | CMS %inh [2] [%] | CMK %inh [3] [%] | U937 %inh [4] [%] | MOLM-13 %inh [5] [%] | MV4-11 %inh [6] [%] | M07e %inh [7] [%] | CHRF288-11 %inh [8] [%]
1 | O=C1NC(=NCCc2ccc(Br)cc2)S/C1=C\c1ccc2ncccc2c1 [SJ000580974-1] | -0.9884 | -2.579 | 0.3303 | -2.102 | 0.9588 | 2.317 | -0.6831 | -1.536
2 | CS(=O)(=O)N1CCC(n2c(=O)c(Oc3ccc(F)cc3F)cc3cnc(NC4CCOCC4)nc32)CC1 [SJ000580975-1] | -0.9846 | -1.205 | 5.472 | 0.9443 | 0.4331 | 2.449 | 0.9741 | -0.8918
3 | COc1ccc(C2=C(c3cn(C)c4ccccc34)C(=O)NC2=O)cc1 [SJ000580976-1] | -0.4189 | -2.297 | 12.52 | 2.922 | 0.836 | 1.945 | 2.491 | 0.9018
4 | Cn1cc(C2=C(c3cn(-c4ccccc4)c4ccccc34)C(=O)NC2=O)c2ccccc21 [SJ000580977-1] | -1.344 | 0.9336 | 6.892 | 0.1058 | 2.403 | 3.843 | -0.4981 | 2.78
5 | Cn1cc(C2=C(c3cn(C)c4ccccc34)C(=O)NC2=O)c2ccccc21 [SJ000580978-1] | 13.32 | 40.67 | 24.68 | 66.13 | 3.271 | 62.31 | 52.37 | -0.8174
6 | Cn1cc(C2=C(c3ccccc3C(F)(F)F)C(=O)NC2=O)c2ccccc21 [SJ000580979-1] | 0.8133 | 5.043 | 21.16 | 1.904 | 4.778 | 10.38 | -0.07648 | 19.74
7 | CCCn1cc(C2=C(c3cn(C)c4ccccc34)C(=O)NC2=O)c2ccccc21 [SJ000580980-1] | 30.17 | 13.73 | 44.58 | 35.21 | 64.41 | 13.35 | 35.81 | 31.26
8 | Cn1cc(C2=C(c3cccc(Cl)c3)C(=O)NC2=O)c2ccccc21 [SJ000580981-1] | -1.322 | -3.182 | -0.373 | 1.717 | -1.961 | -5.929 | 1.057 | 3.619
9 | O=C1NC(=NCCc2ccccc2F)S/C1=C\c1ccc2ncccc2c1 [SJ000580983-1] | 8.671 | 2.155 | 41.89 | 4.047 | 4.839 | -0.6215 | 0.4729 | 13.58
10 | COc1ccc(O)c(C(=O)c2ccc(C(=O)N[C@@H]3CCCNC[C@H]3NC(=O)c3ccncc3)cc2)c1F [SJ000580985-1] | 46.48 | 1.516 | 12.77 | 23.19 | 32.45 | 52.11 | 4.451 | 19.87
11 | Cn1cc(C2=C(Nc3ccccc3)C(=O)NC2=O)c2ccccc21 [SJ000580986-1] | 0.1627 | 2.457 | -3.795 | -0.4269 | 1.455 | -0.9881 | -1.248 | -2.441
12 | N#Cc1ccc(C(=O)c2cnn(-c3ccc(F)cc3)c2N)cc1 [SJ000580987-1] | -0.9573 | 0.4553 | -2.255 | 0.0125 | -1.146 | -4.232 | -1.432 | -3.381
13 | Cn1c(=O)c(Oc2cccc(F)c2)cc2cnc(NC3CCOCC3)nc21 [SJ000580988-1] | -0.3057 | 1.491 | 1.711 | 1.883 | 93.55 | 0.1701 | 0.7165 | 0.6759
14 | CC(=O)N1CCC(Nc2ncc3cc(Oc4ccc(F)cc4F)c(=O)n(C)c3n2)CC1 [SJ000580990-1] | -1.665 | 0.4119 | 3.354 | 4.841 | -1.534 | 0.8846 | 1.958 | 0.9354
15 | Fc1ccc(-c2c(-c3ccncc3)[nH]c3nccnc23)cc1 [SJ000580991-1] | -4.337 | 2.205 | 11.62 | 0.7484 | -0.4618 | -5.653 | -1.27 | 0.1739
16 | Nc1c(C(=O)c2cccc(CCC3(O)CCCC3)c2)cnn1-c1ccc(F)cc1 [SJ000580994-1] | -0.2918 | 0.1004 | 2.532 | 3.468 | 0.5318 | 2.023 | 2.495 | 5.85
17 | Cn1cc(C2=C(c3cn(CCCO)c4ccccc34)C(=O)NC2=O)c2ccccc21 [SJ000580995-1] | -3.665 | 6.597 | 64.37 | 2.993 | 52.73 | 37.67 | 3.572 | 44.69
18 | CCCCCNC(=O)[C@@H]1CCCN2C(=O)CC[C@H](NC(=O)[C@H](Cc3ccc(OP(=O)(O)O)cc3)NC(C)=O)C(=O)N12 [SJ000580996-1] | -1.38 | -2.301 | -6.908 | 0.5533 | -0.4821 | -4.998 | -1.329 | -2.344
19 | COc1ccc(CCN=C2NC(=O)/C(=C/c3ccc4ncccc4c3)S2)cc1 [SJ000580998-1] | -1.934 | -0.7764 | -3.047 | 0.5801 | 2.923 | -1.039 | 1.057 | -1.93
20 | CNCC#Cc1c(F)ccc2c1/C(=C/c1[nH]ccc1OC)C(=O)N2 [SJ000580999-1] | 60.28 | 90.97 | 104.6 | 85.1 | 105.9 | 85.05 | 73.32 | 56.9
